Experimental data: patent US20130028937A1 (LABORATORIOS DEL DR. ESTEVE, S.A., priority 2009, published 2013)

How the values were obtained:
[1] = tested on: incision-induced mechanical allodynia in the rat hind paw; experiment: Mechanical allodynia (von Frey filaments) in postoperative pain model after paw incision; format: in vivo; details: for efficacy on mechanical allodynia (in words): dose-response curve
Procedure: Following plantar incision, rats show decreases in response thresholds graded von Frey filaments (mechanical hypersensitivity) (Brennan et al., Pain 1996, 64, 493).
Male, Wistar rats (120-160 g, Harlan, Italy) were housed in a climate-controlled room for at least 5 days prior to testing. Food and water were available ad libitum up to test time.
The dosing volume was 10 ml/kg. The antiallodynic response of the animal was subsequently evaluated 60 min after drug administration.
Rats were anaesthetized with 3% isofluorane for veterinary use, employing an Ohmeda vaporizer and an anaesthesia chamber. Anaesthesia was kept during the surgical operation by a tube which directs the isoflurane vapours to the animal's snout. Once the rats were anaesthetised, they were laid down in a prone position and their right hindpaws were cleaned out with alcohol. Then, a 1 cm longitudinal incision was made with a number 23 scalpel, through skin and fascia of the plantar aspect of the paw, starting 0.5 cm from the proximal edge of the heel and extending toward the toes. Therefore, both superficial (skin) and deep (muscle) tissues and nerves were injured. Finally, the skin of the paw was stitched with a suturing stitch with breaded silk (3.0) and the wound was cleaned out with povidone.
The drugs were tested 4 hours after the surgery (plantar incision); 60 minutes after the administration of the product, one behavioural endpoint was evaluated: mechanical hypersensitivity or allodynia.
Mechanical allodynia was tested using von Frey filaments. Animals were placed in methacrylate cylinders on an elevated surface, with metallic mesh floor perforated in order to apply the filaments. After an acclimation period of about 30 minutes within the cylinders, both hindpaws were stimulated (the injured and the non-injured paw, serving the latter as control), starting with the lowest force filament (0.4 g) and reaching up to a 15 g filament. The animal's response to pain was manifested by the withdrawal of the paw as a consequence of the painful stimulus caused by a filament. The pressure (force in grams) threshold eliciting the withdrawal of the paw was recorded.
The method is based on the comparison of the effect of several doses of the combination at a determined ratio with respect to the effects achieved using different doses of each of the two agents. […] Where it is established that Zt<Zadd for a specific fixed-ratio, then that composition has a synergistic effect. The theoretical additive dose (Zadd) for the co-crystal was then calculated and compared with the experimental ED50 of the combination (Zt) as described in Tallarida, Drug synergism 2001, 298, 865-872 [10].

[2] = tested on: locomotor activity in mice; experiment: Locomotor activity in actimeter cages; details: CD-1 mice, 30 min after administration
Procedure: Male, CD-1 mice (14-18 g, Charles River) were housed in a climate-controlled room for at least 5 days prior to testing. Food and water were available ad libitum up to test time.
The dosing volume was 10 ml/kg.
Eight standard actimeter cages (Linton Instrumentation, Inc.) equipped with infrared beams for the detection of movement were used. After administering the compounds, the animals were returned to their homecages and then placed in the locomotor activity cages 30 min later. Moving time was measured during 30 min, with readings performed every 5 min.

[3] = Wistar rats, intraperitoneal, 4 hours after plantar incision, 60 min after administration

| SMILES | inhibition of mechanical allodynia compared with each single drug at equivalent doses ([1]; Wistar rats, intraperitoneal, 60 min after administration) | efficacy on mechanical allodynia (in words) [1, 3] | isobolographic analysis of interaction (Zt vs Zadd) ([1]; molar ratio 1:1, experimental ED50 (Zt) vs theoretical Zadd, p>0.05 Student's t-test) | effect on locomotor activity (moving time) ([2]; intraperitoneal, 20, 40, 80 and 160 mg/kg, p>0.05) | maximum efficacy on mechanical allodynia ([1]; Wistar rats, intraperitoneal, 4 hours after plantar incision, 60 min after administration, ceiling effect) [%] | effect on locomotor activity (moving time) ([2]; intraperitoneal, 80 mg/kg, p<0.001) | effect on locomotor activity (moving time) ([2]; intraperitoneal, doses lower than 80 mg/kg) | effect on locomotor activity (moving time) ([2]; intraperitoneal, 160 mg/kg, p<0.05 compared with vehicle) | effect on locomotor activity (moving time) ([2]; intraperitoneal, doses lower than 160 mg/kg) |
| --- | --- | --- | --- | --- | --- | --- | --- | --- | --- |
| COc1ccc(C(CN(C)C)C2(O)CCCCC2)cc1.Cc1ccc(-c2cc(C(F)(F)F)nn2-c2ccc(S(N)(=O)=O)cc2)cc1 (racemic) [Celecoxib—(rac)-venlafaxine co-crystal (1:1)] | superior benefit | full efficacy | additive interaction | did not show any significant side-effect | – | – | – | – | – |
| COc1ccc(C(CN(C)C)C2(O)CCCCC2)cc1 (racemic) [Venlafaxine, (rac)-1-[2-dimethylamino-1-(4-methoxyphenyl)-ethyl]cyclohexanol] | – | – | – | – | 58.40 | significant side-effects increasing | no statistically significant effects | – | – |
| Cc1ccc(-c2cc(C(F)(F)F)nn2-c2ccc(S(N)(=O)=O)cc2)cc1 [Celecoxib, 4-[5-(4-methylphenyl)-3-(trifluoromethyl)pyrazol-1-yl]benzenesulfonamide] | – | full efficacy | – | – | – | – | – | significant side-effects decreasing | No effects |
